Key:
crabgrass, large [1] = assay: Test A preemergence; format: in vivo, Digitaria sanguinalis; details: preemergence; for Crabgrass, Large plant response rating (0 to 100 scale): 125 g ai/ha, visual injury approx. 10 days after treatment; for Crabgrass, Large plant response rating: 500 g ai/ha, visual injury after approx. 10 days, 0 to 100 scale (0 no effect, 100 complete control)
Method in brief: (§1)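 Scoring was visual, on a scale where 100 means complete control and 0 means no effect, comparing treated with untreated plants around 10 days post-application. Compounds in surfactant-containing non-phytotoxic solvent were sprayed onto soil preemergence or onto one- to two-leaf seedlings (2–10 cm) postemergence.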

ducksalad [2] = assay: Test B flood; format: in vivo, Heteranthera limosa; details: 250 g ai/ha, visual rating on 0 to 100 scale (0 no effect, 100 complete control), 13 to 15 days
Method in brief: (§2)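 Visual ratings (0 = no effect, 100 = complete control) versus untreated controls were taken 13–15 days after treatment of greenhouse plants. Treatment was added to paddy water held at 3 cm depth on 2-leaf-stage seedlings.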

pigweed [3] = assay: Test A postemergence; format: in vivo, Amaranthus retroflexus
Method in brief: as §1

pigweed [4] = assay: Test A preemergence; format: in vivo, Amaranthus retroflexus; details: preemergence; for Pigweed plant response rating (0 to 100 scale): 125 g ai/ha, visual injury approx. 10 days after treatment
Method in brief: as §1

ducksalad [5] = assay: Test C flooded paddy test; format: in vivo, Heteranthera limosa; details: Flood
Method in brief: (§3)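 Flooded 3 cm over soil; compound into paddy water; depth kept constant. Greenhouse 13–15 d.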

sedge, umbrella [6] = assay: Test B flood; format: in vivo, Cyperus difformis; details: 250 g ai/ha, visual rating on 0 to 100 scale (0 no effect, 100 complete control), 13 to 15 days
Method in brief: as §2

velvetleaf [7] = assay: Test A postemergence; format: in vivo, Abutilon theophrasti
Method in brief: as §1

foxtail, giant [8] = assay: Test A preemergence; format: in vivo, Setaria faberii; details: preemergence; for Foxtail, Giant plant response rating (0 to 100 scale): 125 g ai/ha, visual injury approx. 10 days after treatment; for Foxtail, Giant plant response rating: 500 g ai/ha, visual injury after approx. 10 days, 0 to 100 scale (0 no effect, 100 complete control)
Method in brief: as §1

sedge, umbrella [9] = assay: Test C flooded paddy test; format: in vivo, Cyperus difformis; details: Flood
Method in brief: as §3

barnyardgrass [10] = assay: Test B flood; format: in vivo, Echinochloa crus-galli; details: 250 g ai/ha, visual rating on 0 to 100 scale (0 no effect, 100 complete control), 13 to 15 days
Method in brief: as §2

rice [11] = assay: Test B flood; format: in vivo, Oryza sativa; details: 250 g ai/ha, visual rating on 0 to 100 scale (0 no effect, 100 complete control), 13 to 15 days
Method in brief: as §2

rice [12] = assay: Test C flooded paddy test; format: in vivo, Oryza sativa; details: Flood
Method in brief: as §3

morningglory [13] = assay: Test A postemergence; format: in vivo, Ipomoea spp.
Method in brief: as §1

crabgrass, large [14] = assay: Test A postemergence; format: in vivo, Digitaria sanguinalis
Method in brief: as §1

wheat [15] = assay: Test A preemergence; format: in vivo, Triticum aestivum; details: preemergence; for Wheat plant response rating (0 to 100 scale): 125 g ai/ha, visual injury approx. 10 days after treatment
Method in brief: as §1

foxtail, giant [16] = assay: Test A postemergence; format: in vivo, Setaria faberii
Method in brief: as §1

wheat [17] = assay: Test A postemergence; format: in vivo, Triticum aestivum
Method in brief: as §1

barnyardgrass [18] = assay: Test A preemergence; format: in vivo, Echinochloa crus-galli; details: preemergence
Method in brief: as §1

barnyardgrass [19] = assay: Test A postemergence; format: in vivo, Echinochloa crus-galli
Method in brief: as §1

corn [20] = assay: Test A preemergence; format: in vivo, Zea mays; details: preemergence; for Corn plant response rating (0 to 100 scale): 125 g ai/ha, visual injury approx. 10 days after treatment; for Corn plant response rating: 500 g ai/ha, visual injury after approx. 10 days, 0 to 100 scale (0 no effect, 100 complete control)
Method in brief: as §1

velvetleaf [21] = assay: Test A preemergence; format: in vivo, Abutilon theophrasti; details: preemergence; for Velvetleaf plant response rating (0 to 100 scale): 125 g ai/ha, visual injury approx. 10 days after treatment
Method in brief: as §1

barnyardgrass [22] = assay: Test C flooded paddy test; format: in vivo, Echinochloa crus-galli; details: Flood
Method in brief: as §3

morningglory [23] = assay: Test A preemergence; format: in vivo, Ipomoea spp.; details: preemergence; for Morningglory plant response rating (0 to 100 scale): 125 g ai/ha, visual injury approx. 10 days after treatment
Method in brief: as §1

corn [24] = assay: Test A postemergence; format: in vivo, Zea mays
Method in brief: as §1

[25] = Postemergence, 500 g ai/ha, 0 to 100 scale (0 no effect, 100 complete control)
[26] = postemergence, 125 g ai/ha, about 10 days, visual rating on 0 to 100 scale (0 no effect, 100 complete control)
[27] = 500 g ai/ha, visual injury after approx. 10 days, 0 to 100 scale (0 no effect, 100 complete control)
[28] = 31 g ai/ha, scale 0 to 100 (0 no effect, 100 complete control)
[29] = 62 g ai/ha, scale 0 to 100 (0 no effect, 100 complete control)
[30] = Postemergence, 125 g ai/ha, 0 to 100 scale, 0 no effect, 100 complete control
[31] = 125 g ai/ha, scale 0 to 100 (0 no effect, 100 complete control)

CCCNC(=O)c1cc(COC)n(Cc2ccnc(C(F)(F)F)c2)n1 [Compound 168]
Crabgrass, Large plant response rating (0 to 100 scale) (crabgrass, large [1]): 100 | Crabgrass, Large plant response rating (crabgrass, large [1]): 100 | Plant response rating, Ducksalad (ducksalad [2]): 90 | Pigweed plant response rating (pigweed [3]; [25]): 100 | Pigweed plant response rating (pigweed [3]; [26]): 80 | Pigweed plant response rating (0 to 100 scale) (pigweed [4]): 100 | Pigweed plant response rating (pigweed [4]; [27]): 100 | Plant response rating, Ducksalad (ducksalad [5]; [28]): 0 | Plant response rating, Ducksalad (ducksalad [5]; [29]): 50 | Plant response rating, Ducksalad (ducksalad [5]; 125 g ai/ha, scale 0 to 100): 70 | Plant response rating, Sedge, Umbrella (sedge, umbrella [6]): 90 | Velvetleaf plant response rating (velvetleaf [7]; [25]): 70 | Velvetleaf plant response rating (velvetleaf [7]; [26]): 40 | Foxtail, Giant plant response rating (0 to 100 scale) (foxtail, giant [8]): 90 | Foxtail, Giant plant response rating (foxtail, giant [8]): 100 | Plant response rating, Sedge, Umbrella (sedge, umbrella [9]; [28]): 0 | Plant response rating, Sedge, Umbrella (sedge, umbrella [9]; [29]): 50 | Plant response rating, Sedge, Umbrella (sedge, umbrella [9]; 125 g ai/ha, scale 0 to 100): 80 | Plant response rating, Barnyardgrass (barnyardgrass [10]): 20 | Plant response rating, Rice (rice [11]): 20 | Plant response rating, Rice (rice [12]; [28]): 0 | Plant response rating, Rice (rice [12]; [29]): 0 | Plant response rating, Rice (rice [12]; 125 g ai/ha, scale 0 to 100): 0 | Morningglory plant response rating (morningglory [13]; [25]): 100 | Morningglory plant response rating (morningglory [13]; [26]): 70 | Crabgrass, Large plant response rating (crabgrass, large [14]; [25]): 90 | Crabgrass, Large plant response rating (crabgrass, large [14]; [26]): 60 | Wheat plant response rating (0 to 100 scale) (wheat [15]): 10 | Wheat plant response rating (wheat [15]; [27]): 70 | Foxtail, Giant plant response rating (foxtail, giant [16]; [25]): 90 | Foxtail, Giant plant response rating (foxtail, giant [16]; [26]): 60 | Wheat plant response rating (wheat [17]; [25]): 40 | Wheat plant response rating (wheat [17]; [26]): 0 | Barnyardgrass plant response rating (barnyardgrass [18]; 125 g ai/ha, visual injury, 0 to 100 scale, approx. 10 days): 20 | Barnyardgrass plant response rating (barnyardgrass [18]; [27]): 100 | Barnyardgrass plant response rating (barnyardgrass [19]; [25]): 90 | Barnyardgrass plant response rating (barnyardgrass [19]; [26]): 50 | Corn plant response rating (0 to 100 scale) (corn [20]): 0 | Corn plant response rating (corn [20]): 20 | Velvetleaf plant response rating (0 to 100 scale) (velvetleaf [21]): 20 | Velvetleaf plant response rating (velvetleaf [21]; [27]): 100 | Plant response rating, Barnyardgrass (barnyardgrass [22]; [28]): 0 | Plant response rating, Barnyardgrass (barnyardgrass [22]; [29]): 0 | Plant response rating, Barnyardgrass (barnyardgrass [22]; 125 g ai/ha, scale 0 to 100): 0 | Morningglory plant response rating (0 to 100 scale) (morningglory [23]): 80 | Morningglory plant response rating (morningglory [23]; [27]): 100 | Corn plant response rating (corn [24]; [25]): 80 | Corn plant response rating (corn [24]; [26]): 20

CCc1cc(C(=O)NC)nn1Cc1ccnc(C(F)(F)F)c1 [Compound 204]
Crabgrass, Large plant response rating (0 to 100 scale) (crabgrass, large [1]): 100 | Crabgrass, Large plant response rating (crabgrass, large [1]): 100 | Plant response rating, Ducksalad (ducksalad [2]): 95 | Pigweed plant response rating (pigweed [3]; [30]): 90 | Pigweed plant response rating (pigweed [3]; [25]): 90 | Pigweed plant response rating (0 to 100 scale) (pigweed [4]): 100 | Plant response rating, Ducksalad (ducksalad [5]; [28]): 0 | Plant response rating, Ducksalad (ducksalad [5]; [29]): 0 | Plant response rating, Ducksalad (ducksalad [5]; [31]): 50 | Plant response rating, Ducksalad (ducksalad [5]; 250 g ai/ha, scale 0 to 100): 90 | Plant response rating, Sedge, Umbrella (sedge, umbrella [6]): 90 | Velvetleaf plant response rating (velvetleaf [7]; [30]): 40 | Velvetleaf plant response rating (velvetleaf [7]; [25]): 50 | Foxtail, Giant plant response rating (0 to 100 scale) (foxtail, giant [8]): 50 | Foxtail, Giant plant response rating (foxtail, giant [8]): 100 | Plant response rating, Sedge, Umbrella (sedge, umbrella [9]; [28]): 0 | Plant response rating, Sedge, Umbrella (sedge, umbrella [9]; [29]): 60 | Plant response rating, Sedge, Umbrella (sedge, umbrella [9]; [31]): 80 | Plant response rating, Sedge, Umbrella (sedge, umbrella [9]; 250 g ai/ha, scale 0 to 100): 80 | Plant response rating, Barnyardgrass (barnyardgrass [10]): 0 | Plant response rating, Rice (rice [11]): 0 | Plant response rating, Rice (rice [12]; [28]): 0 | Plant response rating, Rice (rice [12]; [29]): 0 | Plant response rating, Rice (rice [12]; [31]): 0 | Plant response rating, Rice (rice [12]; 250 g ai/ha, scale 0 to 100): 0 | Morningglory plant response rating (morningglory [13]; [30]): 80 | Morningglory plant response rating (morningglory [13]; [25]): 90 | Crabgrass, Large plant response rating (crabgrass, large [14]; [25]): 80 | Crabgrass, Large plant response rating (crabgrass, large [14]; [26]): 10 | Wheat plant response rating (0 to 100 scale) (wheat [15]): 0 | Foxtail, Giant plant response rating (foxtail, giant [16]; [25]): 70 | Foxtail, Giant plant response rating (foxtail, giant [16]; [26]): 10 | Wheat plant response rating (wheat [17]; [30]): 0 | Wheat plant response rating (wheat [17]; [25]): 10 | Barnyardgrass plant response rating (0 to 100 scale, 0 is no effect, 100 is complete control) (barnyardgrass [18]; 125 g ai/ha, visual injury approx. 10 days after treatment): 0 | Barnyardgrass plant response rating (barnyardgrass [18]; [27]): 80 | Barnyardgrass plant response rating (barnyardgrass [19]; [25]): 50 | Barnyardgrass plant response rating (barnyardgrass [19]; [26]): 10 | Corn plant response rating (0 to 100 scale) (corn [20]): 0 | Corn plant response rating (corn [20]): 10 | Velvetleaf plant response rating (0 to 100 scale) (velvetleaf [21]): 10 | Plant response rating, Barnyardgrass (barnyardgrass [22]; [28]): 0 | Plant response rating, Barnyardgrass (barnyardgrass [22]; [29]): 0 | Plant response rating, Barnyardgrass (barnyardgrass [22]; [31]): 0 | Plant response rating, Barnyardgrass (barnyardgrass [22]; 250 g ai/ha, scale 0 to 100): 0 | Morningglory plant response rating (0 to 100 scale) (morningglory [23]): 30 | Corn plant response rating (corn [24]; [25]): 30 | Corn plant response rating (corn [24]; [26]): 10
